Results on 6 compounds are retold here after patent publication US5191072A, “Lipid A monosaccharide analogues” (priority 1989, dated 1993).

The test system of one series is TNF. Description: TNF-producing activity (TNF titer in serum of mice, cytotoxicity assay using L929 cells). Type of series: in vivo. The conditions noted are these: 10 μg/mouse intravenously, Corynebacterium parvum-primed ICR mouse, serum at 90 minutes; titer = reciprocal of dilution showing 50% cytotoxicity. As for the experimental part: TNF-producing activity was evaluated utilizing the following experiment system.
The first stimulating agent, 5% Corynebacterium parvum suspension (0.2 ml physiological saline solution) was intravenously administered to ICR mouse (female, 6-7 week-aged). Nine days later, the second stimulating agent, the compound of this invention was intravenously administered to the same mouse at 10 μg/mouse. In 90 minutes, 0.5-1 ml of blood was taken from the retro orbital plexus. The obtained blood was allowed to clot at room temperature for five to six hours, and centrifuged at 7200×g for five minutes to separate serum. The obtained serum was incubated at 56° C. for 30 minutes for inactivation before use in the following experiment.
TNF activity in the serum was measured with cytotoxicity assay using L929 cells. L929 cells were prepared in concentration of 6×10^4 cells/well (0.1 ml) RPMI 1640 medium containing 10% FBS and 2 μg/ml actinomycin D in 96-well plates. Serial dilution of obtained serum in RPMI 1640 medium containing 10% FBS was added to each well in the plate (0.1 ml/well). After a 48 hr incubation at 37° C., the viable cells were fixed with methanol. […] Next, absorbance at 550 nm was measured. Finally, cytotoxicity ratio (%) was calculated according to the following formula, and the reciprocal of dilution of the serum showing 50% cytotoxicity was determined for TNF titer in serum (U/ml). […]

The test system of the next series is neutrophils. In words: O2^- production stimulating activity in neutrophils. The conditions noted are these: Neutrophil, 1 h, read-out: Stimulation %. Type of series: cell-based, C3 H/HeN mouse. As to the method: O2^- Production Stimulating Activity in Neutrophils
O2^- production stimulating activity in neutrophils was evaluated utilizing the following experimental system [see J. Exp. Med., 160, 1656-1671, 1984]. To the peritoneal cavity of C3 H/HeN mouse (male, 8-9 week-aged), physiological saline containing 0.2% (w/v) casein was administered. Three hours later, peritoneal exudate cells (90% or more of which are neutrophils) were collected. These cells (1.7×10^6 cells/ml/tube) were incubated in the presence of the compound according to this invention (1 μg/ml) at 37° C. for 60 minutes. After addition of 80 μM of cytochrome C and 0.1 μM of formyl-methionyl-leucyl-phenylalanine (FMLP), the mixture was incubated in the presence of or in the absence of Superoxide dismutase (SOD) at 37° C. for 10 minutes. Then, SOD-inhibitable cytochrome C reduction was estimated from the difference between absorbances at 550 nm and 541.7 nm, and from molar absorption coefficient (16.5×10^3). O2^- production-stimulating activity was shown in Stimulation % in the following formula.
Stimulation %=(the amount of O2^- produced in the presence of compounds of the invention)/(the amount of O2^- produced in the absence of compounds of the invention)×100-100

Series [1] can be described thus: Lethal toxicity in galactosamine-sensitized mice. Type of series: in vivo. The conditions noted are these: galactosamine-sensitized mice; intravenous, C57BL mouse, D-galactosamine/HCl 10 mg/mouse i.p.; observed to seventh day; read-out: LD50 (galactosamine load). As for the experimental part: (§1) Lethal Toxicity in Galactosamine-Sensitized Mice
(§2) Lethal toxicity in galactosamin-sensitized mice was evaluated by utilizing the following experiment system [see J.Biochem., 98, 395-406 pp., 1985].
(§3) To C57BL mouse (male, 7-week aged), 10 mg/mouse of D-galactosamine/HCl was intraperitoneally administered. Immediately after that, the compound of this invention was intravenously administered. After these administrations, general conditions of the mouse were observed every one hour for seven hours, and every day from the following day to the seventh day.

The next series concerns E.coli. 589 strain. In words: Nonspecific protective activity against bacterial infection in immunosuppressed mouse. Type of series: in vivo. The following applies: ICR mice, cyclophosphamide 200 mg/kg, E.coli 1.0×10^7 CFU/mouse i.p. As to the method:
Nonspecific Protective Activity Against Bacterial Infection in Immunosuppressed Mouse
Protective effect against bacterial infection in immunosuppressed mouse was evaluated by utilizing the following experiment system.
To a group of ten ICR mice (male, 5-week aged), cyclophosphamide (200 mg/kg) was intraperitoneally administered. Three days later, the compound of this invention was also intraperitoneally administered. Twenty four hours later, E.coli. 589 strain, was intraperitoneally inoculated at 1.0×10^7 CFU/mouse. The protective activities against infection was evaluated from survival rate (%) of mice after six days of bacterial infection.

The test system of series [2] is galactosamine-sensitized mice. In words: Lethal toxicity in galactosamine-sensitized mice. Type of series: in vivo. The conditions noted are these: intravenous, C57BL mouse, D-galactosamine/HCl 10 mg/mouse i.p.; observed to seventh day; 10080 min. As for the experimental part:
as §1, §2, §3

The mark [3] stands for this setting: compound 1 μg/ml, 37° C., 60 minutes, 0.1 μM FMLP, mouse peritoneal exudate cells.

Like-named read-outs stand apart in the source and are kept apart here.

Regarding `CCCCCCCCCCCCC(CCCCCCCCCCC)CC(=O)O[C@H]1[C@H](OP(=O)(O)O)[C@@H](CO)OC(O)[C@@H]1NC(=O)C[C@H](O)CCCCCCCCCCC` (mixture of isomers) [Compound 46, 2-deoxy-2-[(3R)-3-hydroxytetradecanamido]-4-O-phosphono-3-O-[(3RS)-3-undecylpentadecanoyl]-D-glucopyranose], the “the amount of the TNF in serum” value in the series on TNF was found to be 292354 U/ml.

With `CCCCCCCCCCCCCCC(CCCCCCCCCCC)CC(=O)O[C@H]1[C@H](OP(=O)(O)O)[C@@H](CO)OC(O)[C@@H]1NC(=O)C[C@H](O)CCCCCCCCCCC` (mixture of isomers) [Compound 47, 2-deoxy-2-[(3R)-3-hydroxytetradecanamido]-4-O-phosphono-3-O-[(3RS)-3-undecylheptadecanoyl]-D-glucopyranose], the activation at 1 µg/mL in the series with neutrophils (setting [3]) was determined as 73%.

As for `CCCCCCCCCCCCCCCCC(CCCCCCCCCCC)CC(=O)O[C@H]1[C@H](OP(=O)(O)O)[C@@H](CO)OC(O)[C@@H]1NC(=O)C[C@H](O)CCCCCCCCCCC` (mixture of isomers) [Compound 48, 2-deoxy-2-[(3R)-3-hydroxytetradecanamido]-4-O-phosphono-3-O-[(3RS)-3-undecylnonadecanoyl]-D-glucopyranose], the activation at 1 µg/mL in the series on neutrophils (setting [3]) stood at 69%.

A word on the LD50: it is the dose expected to kill half of the subjects tested. Turning to `CCCCCCCCCCCCCCC(CCCCCCCCCCC)CC(=O)O[C@H]1[C@H](OP(=O)(O)O)[C@@H](CO)OC[C@@H]1NC(=O)C[C@H](O)CCCCCCCCCCC` (stereo partly shown) [Compound 47*], the LD50 at 168 h in series [1] stood at 11.8 µg/kg. In addition, in the series on neutrophils (Mus musculus), the activation at 1 µg/mL amounted to 111%.

Consider `CCCCCCCCCCCCCC(=O)OC(CCCCCCCCCCC)CC(=O)O[C@H]1[C@H](OP(=O)(O)O)[C@@H](CO)OC(O)[C@@H]1NC(=O)CC(O)CCCCCCCCCCC` (stereo partly drawn) [GLA60, 2-deoxy-2-(3-hydroxytetradecanaymidno)-4-0-phosphorno-3-0-[(3-O-tetradecanoyl)-tetradecanoyl]-D-glucopyranose], for which the “the amount of the TNF in serum” value in the series with TNF is listed as 216809 U/ml. Also, the median lethal dose (LD50) at 168 h in series [1] was found to be 3 µg/kg. The activation at 1 µg/mL in the series on neutrophils (Mus musculus) was found to be 71%. In addition, the “survival rate of mice after six days of infection” value was 33% with E.coli. 589 strain (0.005 mg/kg i.p.), 43% with E.coli. 589 strain (0.05 mg/kg i.p.) and 70% with E.coli. 589 strain (0.5 mg/kg i.p.).

Take `CCCCCCCCCCCCCC(=O)OC(CCCCCCCCCCC)CC(=O)NC1C(OCC2OC(OP(=O)(O)O)C(NC(=O)CC(O)CCCCCCCCCCC)C(OC(=O)CC(O)CCCCCCCCCCC)C2O)OC(CO)C(OP(=O)(O)O)C1OC(=O)CC(CCCCCCCCCCC)OC(=O)CCCCCCCCCCCCC` (stereo not shown) [Lipid A]: the “LD50 (galactosamine load)” value in series [2] was determined as 0.3 µg/kg. In the series with E.coli. 589 strain (0.05 mg/kg i.p.), the “survival rate of mice after six days of infection” value worked out at 75%.
